Measured values: patent US12486538B2, “Methods of diagnosing alzheimer's disease and risk of progression to alzheimer's disease” (Loma Linda University Health, priority 2016, dated 2025)
Entries after “also recorded” stand apart in the source; their conditions may differ.

Tests used:
[1] = system: neuron-differentiated SH-SY5Y cells; assay: LDH release assay in neuron-differentiated SH-SY5Y cells; assay type: cell-based, human; conditions: for LDH release, dose-response pattern: increasing concentrations
Method: (§1) Rat cortical neurons were dissociated using a papain dissociation kit following manufacturer's instructions (Worthington, NJ; Cat #LK003150). Neurons were cultured in neurobasal medium with B27 supplement with 2 mM glutamine, 50 U/ml penicillin and 50 μg/mL. SH-SY5Y and B103 cells were cultured in DMEM (Sigma Cat #D6429-500M) supplemented with 5% fetal bovine serum. SH-SY5Y cells were differentiated with the addition of 10 μM retinoic acid for 7 days prior to experimentation. LDH assays were conducted with a LDH assay kit following manufacturer's instructions (cat #88954).

B103-EV cells = assay: LDH release assay in B103 cells with empty vector (lack APP); assay type: cell-based, rat; conditions: absence of APP, 18 hours
Method: as §1, with “experimentation. Transfections were conducted using Lippofectamine LTX (Thermofisher; cat #A12621) according to the manufacturer's instructions.” for “experimentation.”

B103-APP695 cells [2] = assay: LDH release assay in B103 cells stably transfected with APP695; assay type: cell-based, rat
Method: as §1, with “experimentation. Transfections were conducted using Lippofectamine LTX (Thermofisher; cat #A12621) according to the manufacturer's instructions.” for “experimentation.”

B103-APP695 cells [3] = assay: LIVE/DEAD assay in B103-APP695 cells; assay type: cell-based, rat; conditions: 50 μM 27OHC, APP-expressing cells
Method: Live dead cell assays were conducted with live dead cell assay kit according to the manufacturer's instructions (Thermofisher #L3224).

[4] = system: binding of AICD to the MAST4 promoter; assay: ChIP, AICD binding to MAST4 promoter, SH-SY5Y cells; assay type: cell-based, human; conditions: 5 μM 27OHC
Method: (§2) Chromatin Immunoprecipitation (ChIP) assays were conducted according to standard protocols published by ABcam. Following treatments, cells were incubated with formaldehyde at a final concentration of 0.75% for 10 minutes followed by glycine at a final concentration of 125 mM for an additional 5 minutes. Cells were then washed two times with Phosphate Buffered Saline (PBS) and lysed in FA lysis buffer (50 mM HEPES-KOH PH 7.5, 140 mM NaCl, 1 mM EDTA, 1% Triton X-100, 0.1% Sodium Deoxycholate, 0.1% SDS, protease inhibitors). Resulting cell lysates were sonicated to fragment DNA, spun down, and incubated with antibody conjugated protein A sepharose beads (ThermoFisher cat #101041) overnight with gentile agitation. Following incubation, beads were pelleted, washed three times with FA lysis buffer, and DNA was eluted with elution buffer (1% SDS, 100 mM NaHCO3). Resulting DNA fragments were further purified with a DNA purification kit (Clontech cat #740609.250) prior to qPCR analysis. Antibodies used were anti-APP C-terminus (Sigma #A8717); anti-FOXO1 (Abcam #39670).

[5] = system: binding of AICD to the MAST4 promoter; assay: ChIP, AICD binding to MAST4 promoter, transfected B103 cells; assay type: cell-based, rat
Method: as §2

[6] = system: binding of AICD to the MAST4 promoter; assay: ChIP, AICD binding to MAST4 promoter, rat cortical neurons; assay type: cell-based; conditions: 5 μM 27OHC
Method: (§3) Rat cortical neurons were dissociated using a papain dissociation kit following manufacturer's instructions (Worthington, NJ; Cat #LK003150). Neurons were cultured in neurobasal medium with B27 supplement with 2 mM glutamine, 50 U/ml penicillin and 50 μg/mL. SH-SY5Y and B103 cells were cultured in DMEM (Sigma Cat #D6429-500M) supplemented with 5% fetal bovine serum. SH-SY5Y cells were differentiated with the addition of 10 μM retinoic acid for 7 days prior to experimentation.
as §2, with “Resulting DNA fragments were further purified with a DNA purification kit (Clontech cat #740609.250) prior to qPCR analysis. Antibodies used were anti-APP C-terminus (Sigma #A8717); anti-FOXO1 (Abcam #39670).” left out

MAST4 mRNA [7] = assay: qPCR of MAST4 mRNA, SH-SY5Y cells; assay type: cell-based, human; conditions: 5 μM 27OHC
Method: (§4) RNA was purified using TRIzol LS reagent according to the manufacturer's instructions (Thermofisher cat #10296010).
(§5) mRNA was purified with TRIzol reagent, converted to cDNA with reverse transcriptase according to the manufacturer's instructions and quantified with iTaq Universal SYBR Green Supermix (Bio-Rad cat #1725120). Results were determined using the delta-delta cycle threshold (ct) method.

MAST4 mRNA [8] = assay: qPCR of MAST4 mRNA, transfected B103 cells; assay type: cell-based, rat; conditions: B103 APP695, 5 μM 27OHC
Method: as §4, §5

MAST4 mRNA [9] = assay: qPCR of MAST4 mRNA, rat cortical neurons; assay type: cell-based; conditions: 5 μM 27OHC
Method: as §4, §5

MAST4 protein expression = assay: Immunoblot of MAST4 protein, SH-SY5Y cells; assay type: cell-based, human; conditions: 5 μM 27OHC
Method: (§6) Immunoblotting was conducted as previously described with the following antibodies: APP (Sigma #A8717; Millipore #22C11); MAST4 (GeneTex #GTX87899); FOXO1 (Cell Signaling Technology #2880); RTKN2 (Proteintech #17458-1-AP); caspase-3 (Cell Signaling Technology #9662); caspase-7 (Cell Signaling Technology #9492); actin (Sigma #A5316) (7).

[10] = system: FOXO1 phosphorylation by MAST4 kinase; assay: MAST4 in vitro kinase assay on immunoprecipitates from treated cells; assay type: cell-based, human
Method: Immunoprecipitations were conducted as outlined by ABcam under non-denaturing conditions.
Kinase activity was measured at 37° C. for 30 minutes in 50 μl kinase buffer (50 mM Tris, pH 7.4, 10 mM MgCl2) supplemented with 50 μM ATP and human recombinant FOXO1 (1 μg; Origene #TP300477). Kinase reactions were run on 4-20% Tris-Glycine polyacrylamide gels (Thermofisher) and byproducts identified with anti phospho-Serine/Threonine antibody (Abcam ab17464).

[11] = system: binding of FOXO1 to the RTKN2 promoter; assay: ChIP, FOXO1 binding to RTKN2 promoter, SH-SY5Y cells; assay type: cell-based, human; conditions: 5 μM 27OHC
Method: as §2

[12] = system: binding of FOXO1 to the RTKN2 promoter; assay: ChIP, FOXO1 binding to RTKN2 promoter, transfected B103 cells; assay type: cell-based, rat; conditions: B103 expressing APP695, 5 μM 27OHC
Method: as §2

[13] = system: binding of FOXO1 to the RTKN2 promoter; assay: ChIP, FOXO1 binding to RTKN2 promoter, rat cortical neurons; assay type: cell-based
Method: as §3, §2

RTKN2 mRNA [14] = assay: qPCR of RTKN2 mRNA, SH-SY5Y cells; assay type: cell-based, human; conditions: control siRNA, 5 μM 27OHC
Method: as §4, §5

RTKN2 mRNA [15] = assay: qPCR of RTKN2 mRNA, transfected B103 cells; assay type: cell-based, rat; conditions: B103 with APP695, 5 μM 27OHC
Method: as §4, §5

RTKN2 mRNA [16] = assay: qPCR of RTKN2 mRNA, rat cortical neurons; assay type: cell-based
Method: as §4, §5

RTKN2 protein expression = assay: Immunoblot of RTKN2 protein, rat cortical neurons; assay type: cell-based; conditions: cytoprotective doses, 2.5 and 5 μM 27OHC
Method: as §6

[17] = system: activated caspase-3, activated caspase-7 and Bax/Bcl2 ratio; assay: Immunoblot of active caspases 3 and 7, Bax, Bcl-2 and RTKN2 in treated cells; assay type: cell-based
Method: as §6

## CC(C)C(O)CC[C@@H](C)[C@H]1CC[C@H]2[C@@H]3CC=C4C[C@@H](O)CC[C@]4(C)[C@H]3CC[C@]12C (stereo partly drawn) [24OHC, 24-hydroxycholesterol]
[1]; 18 hours
  LDH release, dose-response pattern: had no effect; also recorded: No LDH changes are measurable

## C[C@@H](CO)CCC[C@@H](C)[C@H]1CC[C@H]2[C@@H]3CC=C4C[C@@H](O)CC[C@]4(C)[C@H]3CC[C@]12C [27OHC, 27-hydroxycholesterol]
[1]; 15, 25, and 50 μM treatments
  cytotoxicity (LDH): increasing cytotoxicity
[1]; 18 hours
  concentration of maximum protective effect (LDH): 5 µM
  LDH release, dose-response pattern: biphasic dose-dependent cellular response
[1]; concentrations below 10 μM, 18 hours
  LDH release compared to baseline (solvent alone): decreased LDH compared to baseline
[1]; higher concentrations (than 10 μM), 18 hours
  cytotoxicity (LDH release): dose-dependent cytotoxicity
B103-EV cells
  LDH levels, dose-response: increased LDH levels in a dose-dependent manner; also recorded: Cytotoxicity is dose-dependent
B103-APP695 cells [2]; 5 μM 27OHC
  LDH levels: reduced LDH levels
B103-APP695 cells [2]; doses greater than 10 μM
  cytotoxicity (LDH): dose-dependently cytotoxic
B103-APP695 cells [2]; presence of APP695, 18 hours
  LDH levels, dose-response pattern: biphasic response comparable to that shown by SH-SY5Y cells; also recorded: biphasic pattern
B103-APP695 cells [3]
  dead/live cell abundance: protective
[4]
  AICD binding to the MAST4 promoter: AICD does bind to the MAST4 promoter
[5]; B103 expressing APPG700A, 5 μM 27OHC
  AICD binding to the MAST4 promoter: an effect not seen in cells expressing APPG700A
[5]; B103 transfected with APP695, 5 μM 27OHC
  AICD binding to the MAST4 promoter: increased AICD binding to the MAST4 promoter
[6]
  AICD interaction with the MAST4 promoter: AICD also interacts with the MAST4 promoter
MAST4 mRNA [7]
  MAST4 mRNA levels: elevated MAST4 mRNA levels
MAST4 mRNA [8]
  MAST4 mRNA levels: elevated MAST4 mRNA levels
MAST4 mRNA [9]
  MAST4 mRNA levels: also present in rat primary neurons
MAST4 protein expression
  MAST4 protein expression: MAST4 protein expression increased
[10]; cells treated with 5 μM 27OHC
  FOXO1 phosphorylation in MAST4 immunoprecipitates: Increased FOXO1 phosphorylation
[10]; cells treated with 50 μM 27OHC
  FOXO1 phosphorylation in MAST4 immunoprecipitates: No increase in pSer-FOXO1
[11]
  FOXO1 binding to the RTKN2 promoter: decrease of that binding
[12]
  FOXO1 binding to the RTKN2 promoter: FOXO1 binding was also decreased
[13]; 5 and 50 μM 27OHC, FIG. 3F
  FOXO1 binding to the RTKN2 promoter: decreased at 5 μM but not 50 μM: confirmed in rat cortical neurons
[13]; 15, 25, and 50 μM 27OHC
  FOXO1 binding to the RTKN2 promoter: increasing
[13]; cytoprotective doses, 2.5 and 5 μM 27OHC (b174 prints 5 M)
  FOXO1 binding to the RTKN2 promoter: decreased binding of FOXO1 to the RTKN2 promoter
RTKN2 mRNA [14]
  RTKN2 mRNA: increased RTKN2 mRNA
RTKN2 mRNA [15]
  RTKN2 mRNA: RTKN2 was upregulated
RTKN2 mRNA [16]; 5 and 50 μM 27OHC, FIG. 3J
  RTKN2 mRNA: upregulated at 5 μM but not 50 μM: confirmed in rat cortical neurons
RTKN2 mRNA [16]; cytoprotective doses, 2.5 and 5 μM 27OHC
  RTKN2 mRNA: increased RTKN2 mRNA
RTKN2 protein expression
  RTKN2 protein expression: increased
[17]; 5 μM 27OHC
  Bcl-2: robust increase in Bcl-2
  RTKN2 protein: robust increase in Bcl-2 and RTKN2
  active forms of caspases 3 and 7: decrease in active forms of both caspases
[17]; 50 μM 27OHC
  Bcl-2: decreased Bcl-2
  active forms of caspases 3 and 7: increased the active forms of both caspases
